Measured values reported in patent US20060069132A1, “Azolecarboxamide herbicides” (priority 2004, published 2006).

Experiments:
woolly cupgrass = test: Test C pre-/postemergence herbicide test; format: in vivo, Eriochloa villosa; settings: for Cupgrass, Woolly plant response rating: 500 g ai/ha
Method in brief: (§1)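 Pre/post spray; non-phytotoxic solvent + surfactant. Post-timing 1–4 leaves, 2–18 cm. Read-out: visual % control vs untreated, day 12–14, greenhouse.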

yellow nutsedge = test: Test C pre-/postemergence herbicide test; format: in vivo, Cyperus esculentus; settings: for Nutsedge, Yellow plant response rating: 500 g ai/ha
Method in brief: as §1

velvetleaf = test: Test A pre-/postemergence herbicide test; format: in vivo, Abutilon theophrasti
Method in brief: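 Greenhouse injury scoring (0–100, complete control = 100) at approximately ten days follows simultaneous pre- and postemergence application. Soil received a directed spray after seeding; seedlings of 2–10 cm at the one- to two-leaf stage were sprayed to runoff.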

cocklebur = test: Test B pre-/postemergence herbicide test; format: in vivo, Xanthium strumarium
Method in brief: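 Seeds were planted and treated preemergence with compounds formulated in a non-phytotoxic solvent mixture containing surfactant, while plants at the 1- to 4-leaf stage (2 to 18 cm) received postemergence sprays. Flooded paddy plants were grown to the 2-leaf stage. After 13 to 15 days in a greenhouse, injury was visually rated 0–100 against untreated controls.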

barnyardgrass = test: Test B flooded paddy test; format: in vivo, Echinochloa crus-galli; settings: 1000 g ai/ha, visual rating, scale 0 to 100 (0 no effect, 100 complete control), 13 to 15 days
Method in brief: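 Postemergence plants were sprayed with formulated test chemicals at 2 to 18 cm height (1- to 4-leaf stage); paddy species were grown to the 2-leaf stage. After 13 to 15 days in a greenhouse, injury was rated visually against untreated controls on a 0–100 scale (0 = no effect, 100 = complete control).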

common ragweed = test: Test C pre-/postemergence herbicide test; format: in vivo, Ambrosia elatior; set-up: key to Plant response rating, Ragweed: 0 = no effect, 100 = complete control; settings: for Ragweed plant response rating: 500 g ai/ha
Method in brief: as §1

rice = test: Test B pre-/postemergence herbicide test; format: in vivo, Oryza sativa; settings: preemergence
Method in brief: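 Species tested were Echinochloa crus-galli, Ipomoea coccinea, Xanthium strumarium and Oryza sativa, treated both before emergence and at the 1- to 4-leaf stage; rice and barnyardgrass were also tested under flooding at 2 leaves. Greenhouse incubation lasted 13–15 days before visual 0–100 scoring.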

goosegrass = test: Test C pre-/postemergence herbicide test; format: in vivo, Eleusine indica; settings: for Goosegrass plant response rating: 500 g ai/ha
Method in brief: as §1

[1] = Postemergence, 250 g ai/ha, scale 0 to 100, 0 no effect, 100 complete control
[2] = postemergence, 125 g ai/ha, scale 0 to 100
[3] = postemergence, 62 g ai/ha, scale 0 to 100
[4] = Postemergence, 500 g ai/ha, 0 to 100 scale, 0 no effect, 100 complete control
[5] = Postemergence, 2000 g ai/ha, 0 to 100 scale, 0 no effect, 100 complete control
[6] = Preemergence, 2000 g ai/ha, visual rating, 0 to 100 scale (0 no effect, 100 complete control)
[7] = postemergence, 125 g ai/ha, visual rating, scale 0 (no effect) to 100 (complete control)
[8] = preemergence, 125 g ai/ha, 0 to 100 scale, 0 is no effect, 100 is complete control
[9] = 125 g ai/ha, scale 0 (no effect) to 100 (complete control), visual, 12 to 14 days, preemergence
[10] = Preemergence, scale 0 to 100, 0 no effect, 100 complete control

Row | SMILES | Cupgrass, Woolly plant response rating (woolly cupgrass; Postemergence, scale 0 to 100) | Plant response rating, Cupgrass, Woolly (woolly cupgrass; [1]) | Plant response rating, Cupgrass, Woolly (woolly cupgrass; [2]) | Nutsedge, Yellow plant response rating (yellow nutsedge; Postemergence, scale 0 to 100) | Plant response rating, Nutsedge, Yellow (yellow nutsedge; [1]) | Plant response rating, Nutsedge, Yellow (yellow nutsedge; [2]) | Velvetleaf plant response rating (velvetleaf; [4]) | Plant response rating, Velvetleaf (velvetleaf; [5]) | Velvetleaf plant response rating (velvetleaf; [6]) | Cocklebur plant response rating (cocklebur; [7]) | Plant response rating, Cocklebur (cocklebur; [8]) | Barnyardgrass plant response rating (barnyardgrass) | Ragweed plant response rating (common ragweed; Postemergence, scale 0 to 100) | Plant response rating, Ragweed (common ragweed; [1]) | Plant response rating, Ragweed (common ragweed; [2]) | Goosegrass plant response rating (goosegrass; Postemergence, scale 0 to 100) | Plant response rating, Goosegrass (goosegrass; [1]) | Plant response rating, Goosegrass (goosegrass; [2]) | other results
1 | CCCCOC(=O)c1cccc(NC(=O)c2cc(C(C)(C)C)nn2CC)c1 [Compound 86] | 85 | 80 | 70 | 30 | 10 | 5 | 40 | 30 | 10 | 20 | 0 | 30 | 70 | 70 | 65 | 85 | 80 | 60 | Plant response rating, Cupgrass, Woolly (woolly cupgrass; [3]): 50; Plant response rating, Nutsedge, Yellow (yellow nutsedge; [3]): 0; Velvetleaf plant response rating (velvetleaf; Preemergence, 500 g ai/ha, visual rating, 0 to 100 scale (0 no effect, 100 complete control)): 0; Plant response rating, Cocklebur (cocklebur; Postemergence, 500 g ai/ha, visual rating after 13 to 15 days, scale 0 (no effect) to 100 (complete control)): 100; Cocklebur plant response rating (cocklebur; Preemergence, 500 g ai/ha, scale 0 to 100): 0; Plant response rating, Ragweed (common ragweed; [3]): 10; Plant response rating, Rice (rice; 125 g ai/ha, 0 to 100 scale, 0 is no effect, 100 is complete control): 0; Plant response rating, Goosegrass (goosegrass; [3]): 50
2 | CCn1nc(C(C)(C)C)cc1C(=O)Nc1cccc(SC(F)(F)F)c1 [Compound 130] | 80 | 60 | 50 | 0 | 0 | 0 | 20 | 20 | 30 | 100 | 0 | 40 | 85 | 85 | 40 | 60 | 60 | 20 | Plant response rating (0 = no effect, 100 = complete control), Cupgrass, Woolly (woolly cupgrass; 62 g ai/ha, preemergence): 5; Plant response rating, Cupgrass, Woolly (woolly cupgrass; [9]): 10; Plant response rating, Cupgrass, Woolly (woolly cupgrass; 250 g ai/ha, scale 0 to 100 (0 no effect, 100 complete control), visual, 12 to 14 days, preemergence): 40; Cupgrass, Woolly plant response rating (woolly cupgrass; [10]): 70; Plant response rating (0 = no effect, 100 = complete control), Nutsedge, Yellow (yellow nutsedge; 62 g ai/ha, preemergence): 0; Plant response rating, Nutsedge, Yellow (yellow nutsedge; [9]): 0; Nutsedge, Yellow plant response rating (yellow nutsedge; [10]): 0; Velvetleaf plant response rating (velvetleaf; preemergence, 500 g ai/ha, visual injury, 0 to 100 scale (0 no effect, 100 complete control)): 20; Plant response rating, Cocklebur (cocklebur; 500 g ai/ha, visual rating 0-100, 0 no effect, 100 complete control, preemergence): 0; Cocklebur plant response rating (cocklebur; postemergence, 500 g ai/ha, visual rating, scale 0 (no effect) to 100 (complete control)): 100; Plant response rating (0 = no effect, 100 = complete control), Ragweed (common ragweed; 62 g ai/ha, preemergence): 0; Plant response rating, Ragweed (common ragweed; [9]): 10; Ragweed plant response rating (common ragweed; [10]): 80; Plant response rating, Rice (rice; 500 g ai/ha, visual rating 0-100, 0 no effect, 100 complete control): 0; Plant response rating (0 = no effect, 100 = complete control), Goosegrass (goosegrass; 62 g ai/ha, preemergence): 10; Plant response rating, Goosegrass (goosegrass; [9]): 20; Goosegrass plant response rating (goosegrass; [10]): 50
